Source: patent publication US4464371A, “Five-membered heterocyclic compounds” (Santen Pharmaceutical Co., Ltd., priority 1980, dated 1984)

Experiments:
Acute toxicity test = type: in vivo, male mice; details: mouse, in vivo; intravenous, administered as aqueous sodium hydroxide solution, male mice
Description: (§1) Acute toxicity of (2R,4R)--3--[S--[4--(dipropylsulfamoyl)--benzoyl]--3--mercaptopropionyl]-- 2--(2--hydroxyphenyl)--4--thiazolidinecarboxylic acid is shown in the table.
(§2) *^1 administered as tragacanth
(§3) *^2 administered as aqueous sodium hydroxide solution
(§4) Animals used in this test were ten male mice in each route.

mice = assay: Acute toxicity test; type: in vivo, male mice
Description: as §1, §2, §3, §4

[1] = test system: blood pressure of spontaneously hypertensive rats; assay: Hypotensive effect in spontaneously hypertensive rats (oral, indirect tail-cuff method); type: in vivo, Male spontaneously hypertensive rats (Charles River); details: 10 mg/Kg and 30 mg/Kg, suspended in 0.5% tragacanth, male spontaneously hypertensive rats
Description: Male spontaneously hypertensive rats (Charles River) weighing 370-430 g (37-43 weeks of age) were used.
The subject compound, suspended in 0.5% tragacanth, was given orally to the animals. Their blood pressure was measured by indirect tail-cuff method using a programmed electrosphygmomanometer.
In the figure, line 1 and line 2 represent the hypotensive effect by the compound of this invention at doses of 30 mg/Kg and 10 mg/Kg, respectively, line 3 that by the reference compound at a dose of 30 mg/Kg, and line 4 control (no drugs).

In the case of `CCCN(CCC)S(=O)(=O)c1ccc(C(=O)SCCC(=O)N2[C@@H](c3ccccc3O)SC[C@H]2C(=O)O)cc1` [Example 1, (2R,4R)--3--[S--[4--(Dipropylsulfamoyl)benzoyl]--3--mercaptopropionyl]--2-- (2--hydroxyphenyl)--4--thiazolidinecarboxilic acid], the LD50 (Acute toxicity test) is reported as over 500 mg/kg, the “LD50 (deaths observed)” value (mice; mouse, in vivo, po, 1000 mg/kg) is reported as “No death was observed” and the “acute toxicity (overall)” value (mice; oral and intravenous, male mice) is reported as “low toxicity”. The “decrease of blood pressure (hypotensive effect)” value [1] was “clearly decreased the blood pressure”.
